Publication PMC5736782, “The Differential Absorption of a Series of P-Glycoprotein Substrates in Isolated Perfused Lungs from Mdr1a/1b Genetic Knockout Mice can be Attributed to Distinct Physico-Chemical Properties: an Insight into Predicting Transporter-Mediated, Pulmonary Specific Disposition” (Pharmaceutical Research, 2017)
Like-named read-outs stand apart in the source and are kept apart here.

How the values were obtained:
[1] = Immobilised artificial membrane (IAM) chromatography; type: physicochemical; conditions: extrapolated to 100% water; mean of four experiments
Procedure: IAM chromatography provided an experimental measure of substrate membrane affinity and phospholipid interaction. The IAM column (Regis Technologies Inc., Hichrom, Reading, UK; IAM.PC.DD2 10 cm x 4.6 mm ID column) was run under isocratic eluting conditions with the retention of all compounds determined under three mobile phase conditions: 10%, 20% and 30% acetonitrile in water, and from which the theoretical retention time in 100% water was calculated by linear regression. LogK^IAM values were calculated according to Eq. 2:2 LogK^IAM=LogTr−T0/T0
where Tr and T0 are respectively the retention times of the substrate in 100% water and of the unretained compound, i.e. eluting within the solvent front of 75 s in all experiments.

mouse Bcrp = biological target: T1, mouse Bcrp (Mus musculus, UniProt Q7TMS5); assay: Gentest ABC transporter membrane ATPase assay; type: biochemical
T1 construct: purchased Corning (Gentest), Germany
T1 sequence (Q7TMS5 1-657): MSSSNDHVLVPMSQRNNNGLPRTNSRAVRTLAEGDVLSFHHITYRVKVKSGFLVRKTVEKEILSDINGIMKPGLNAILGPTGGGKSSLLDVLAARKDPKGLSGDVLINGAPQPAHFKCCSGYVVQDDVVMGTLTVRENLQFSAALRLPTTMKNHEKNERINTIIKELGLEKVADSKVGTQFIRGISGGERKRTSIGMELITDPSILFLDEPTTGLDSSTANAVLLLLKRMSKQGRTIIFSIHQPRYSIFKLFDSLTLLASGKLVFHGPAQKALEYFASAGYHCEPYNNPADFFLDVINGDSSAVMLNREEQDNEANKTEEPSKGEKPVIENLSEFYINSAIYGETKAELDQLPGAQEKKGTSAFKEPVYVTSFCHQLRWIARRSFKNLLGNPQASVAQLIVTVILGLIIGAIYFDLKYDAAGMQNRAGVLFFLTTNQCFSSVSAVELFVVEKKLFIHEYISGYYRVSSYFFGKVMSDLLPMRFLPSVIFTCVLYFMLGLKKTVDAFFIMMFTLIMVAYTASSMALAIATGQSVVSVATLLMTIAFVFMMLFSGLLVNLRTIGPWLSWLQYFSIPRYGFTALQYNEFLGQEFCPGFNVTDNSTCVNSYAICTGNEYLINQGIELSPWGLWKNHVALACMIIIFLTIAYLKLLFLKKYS
Text: (§1) The Gentest ATPase assay (Corning, Germany) was used to investigate the binding kinetics of the panel of P-gp substrates against membranes constituted to display human MDR1, mouse Mdr1a, mouse Mdr1b and mouse Bcrp. The assays measure the accumulation of inorganic phosphate (absorbance at 800 nm) produced in the breakdown of ATP to ADP. […] The assays were used in accordance with the manufacturer’s protocol to calculate (GraphPad Prism) the Michaelis-Menten parameters Km and VMAX. For the assay test compounds were serially diluted to produce an assay concentration range of 0–300 μM with the kinetics of ATP turnover examined over 30 min at 37°C.

mouse Mdr1b = mouse Mdr1b (Mus musculus, UniProt P06795); assay: Gentest ABC transporter membrane ATPase assay; conditions: 0–300 μM, 30 min, 37°C
Text: as §1

mouse Mdr1a = mouse Mdr1a (Mus musculus, UniProt P21447); assay: Gentest ABC transporter membrane ATPase assay; conditions: 0–300 μM, 30 min, 37°C
[2] = system: P-glycoprotein (Mdr1a/Mdr1b) in isolated perfused mouse lung; assay: Isolated perfused mouse lung (IPML) airway-to-perfusate absorption, Mdr1a/1b (+/+) vs (−/−)
Procedure: The atria and the lower half of the heart were cut to allow the free flow of perfusate. The lungs were removed and suspended vertically in a custom water-jacketed glass thorax (Radleys, Essex, UK) maintained at 37°C.
Following dosing of compound into the IPML airways serial samples (250 μL) were collected for bioanalysis from the 10 mL recirculating perfusate reservoir. Each sample collected from the reservoir was replaced with an equal volume of fresh warmed, oxygenated perfusate. Upon termination of the experiment the dose solutions, apparatus washings and perfusate samples were collected for mass balance calculations enabling determination of the actual total dose delivered to the lungs.
Radioactive compounds were directly analysed by liquid scintillation counting. Volumes of 50 μL perfusate samples were mixed with 3 mL of Scintisafe 3 Liquid Scintillation Fluid (Fisher, UK) and transferred to vials for scintillation counting using a TriCarb 2900TR (Packard Bioscience, USA).
After accounting for the mass of compound removed at each sample point, plots of the cumulative ‘%deposited dose absorbed’ versus ‘time’ were generated and subject to nonlinear regression analysis according to a first-order absorption one-compartment accumulating model (Eq. 1) to generate estimates for the extent (F) and rate (Ka) of absorption from the IPML airways to the recirculating perfusate.
The data was also subject to standard non-compartmental analysis, specifically Area Under Curve (AUC0–30 min) of ‘%deposited dose absorbed’ versus ‘time’ (units: %Dose.min) and reflecting for the exclusively accumulating perfusate ‘compartment’ the exposure arising from the IPML absorption process alone.

[3] = system: P-gp (Mdr1a/1b) in mouse intestinal segments
Procedure: (§2) The bathing fluid for both mucosal and serosal surfaces (3 mL volume in each chamber) comprised oxygenated Krebs-Henseleit buffer maintained at 37°C (heating block) under stirred conditions (gas flow manifold). […] Any intestinal segments presenting an initial TEER of lower than 80 Ω.cm^2 were discarded prior to the experiment, likewise any segments whose TEER decreased by more than 10% over the course of the experiment were excluded.
(§3) Thereafter permeability coefficients were determined according to Eq. 4:4 ρ=dM/dt/A^∗C0

[4] = Multi-lamellar liposome vesicle (MLV) partitioning; type: physicochemical; conditions: (C0−CS)/C0, 1 μg/mL, 4 h, 37°C, PBS pH 7.4
Procedure: MLVs were formed as previously described ([20]). Briefly, solutions of 8 mg phosphatidylcholine and 2 mg phosphatidylglycerol in 10 mL chloroform were completely dried to a lipid film (rotation under vacuum).
These preparations were then incubated at 37°C for 4 h under shaking conditions to allow equilibration of compound between the lipid and aqueous fractions. The MLVs were then pelleted and 100 μL of supernatant removed for analysis by radiometric or LC-MS/MS methods as described above. Partitioning into the MLVs was determined according to Eq. 3:3 MLVpartitioning=C0−CS/C0
where C0 is the initial compound concentration (1 μg/mL) and CS is the compound concentration present in the aqueous supernatant at the end of 4 h incubation.

human MDR1 = human MDR1 (Homo sapiens, UniProt P08183); assay: Gentest ABC transporter membrane ATPase assay; conditions: ATPase, 0–300 μM, 30 min, 37°C
[5] = system: P-gp (Mdr1a/1b) in mouse intestinal segments; assay: Ussing chamber intestinal permeability, ileal segments Mdr1a/1b (+/+) vs (−/−); conditions: for Mdr1a/1b (+/+) Permeability coefficient: wild-type intestinal segments; for Mdr1a/1b (+/+) Permeability coefficient / Mdr1a/1b (−/−) Permeability coefficient: mucosal to serosal, 50 μM, 180 min; for Mdr1a/1b (−/−) Permeability coefficient: P-gp knockout intestinal segments; for Ratio Permeability (−/−): (+/+): intestinal Papp KO:WT
Procedure: as §2, §3

P-gp [6] = conditions: IPRL; cited from earlier work
P-gp [7] = system: P-gp; set-up: method as in PMID 23670704; conditions: IPRL and IPML models; cited from earlier work
P-gp (Mdr1a/1b) = assay: Pilot in-vivo intra-nasal instillation, lung clearance
Procedure: Separate mice were sacrificed (n=3) at each time-point post-instillation (5 min, 1 hr, 3 hr, 5 hr, 7 hr and 12 hr). Lung tissue was homogenised and subjected to solute extraction approaches priod to LC-MS/MS quantitation.

human MDR1 (P-gp) = human MDR1 (P-gp) (Homo sapiens, UniProt P08183); assay: Gentest ABC transporter membrane ATPase assay; conditions: human
Caco-2 cell model = system: Caco-2 cell model; set-up: method as in PMID 12761811; conditions: cited from earlier work
[8] = set-up: method as in PMID 12761811; conditions: cited from earlier work
[9] = ATPase, 0 indicates no enzyme turnover
[10] = knockout IPML, % deposited dose absorbed vs time in perfusate
[11] = knockout IPML, within 30 minutes
[12] = wild-type IPML, within 30 minutes
[13] = categorisation from IPML outcomes

Chain of mouse Mdr1b (P06795 whole entry): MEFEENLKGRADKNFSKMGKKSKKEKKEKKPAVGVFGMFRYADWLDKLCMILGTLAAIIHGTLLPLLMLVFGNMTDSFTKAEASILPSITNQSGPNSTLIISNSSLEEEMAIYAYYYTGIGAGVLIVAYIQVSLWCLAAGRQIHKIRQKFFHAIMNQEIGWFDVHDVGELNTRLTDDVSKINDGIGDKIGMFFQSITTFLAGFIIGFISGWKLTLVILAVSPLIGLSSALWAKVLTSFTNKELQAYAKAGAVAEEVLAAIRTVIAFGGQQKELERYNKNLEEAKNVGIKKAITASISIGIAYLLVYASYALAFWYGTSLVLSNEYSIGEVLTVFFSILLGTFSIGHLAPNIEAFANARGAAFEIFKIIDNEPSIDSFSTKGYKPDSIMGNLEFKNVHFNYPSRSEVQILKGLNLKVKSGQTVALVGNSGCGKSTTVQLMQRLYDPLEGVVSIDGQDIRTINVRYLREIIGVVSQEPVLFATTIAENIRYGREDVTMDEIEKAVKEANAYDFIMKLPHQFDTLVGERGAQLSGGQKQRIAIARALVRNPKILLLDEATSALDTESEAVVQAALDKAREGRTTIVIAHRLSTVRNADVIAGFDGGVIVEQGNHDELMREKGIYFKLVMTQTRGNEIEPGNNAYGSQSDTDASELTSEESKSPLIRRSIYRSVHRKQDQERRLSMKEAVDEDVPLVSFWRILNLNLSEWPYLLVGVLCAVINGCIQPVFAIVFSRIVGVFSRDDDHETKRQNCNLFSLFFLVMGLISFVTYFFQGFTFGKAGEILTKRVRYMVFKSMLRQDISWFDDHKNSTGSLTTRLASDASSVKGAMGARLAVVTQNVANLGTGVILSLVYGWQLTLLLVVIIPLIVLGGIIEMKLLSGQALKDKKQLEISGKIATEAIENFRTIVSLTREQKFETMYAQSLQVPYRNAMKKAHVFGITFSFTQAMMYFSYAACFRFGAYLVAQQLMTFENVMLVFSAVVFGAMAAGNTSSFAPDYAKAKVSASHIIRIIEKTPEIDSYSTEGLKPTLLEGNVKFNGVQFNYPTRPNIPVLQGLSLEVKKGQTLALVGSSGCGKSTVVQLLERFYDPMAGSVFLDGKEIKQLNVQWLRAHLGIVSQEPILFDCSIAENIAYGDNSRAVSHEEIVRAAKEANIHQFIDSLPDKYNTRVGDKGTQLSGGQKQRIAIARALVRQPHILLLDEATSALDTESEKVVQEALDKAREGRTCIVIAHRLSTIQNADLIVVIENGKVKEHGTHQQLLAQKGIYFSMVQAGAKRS
Chain of human MDR1 (P08183 whole entry): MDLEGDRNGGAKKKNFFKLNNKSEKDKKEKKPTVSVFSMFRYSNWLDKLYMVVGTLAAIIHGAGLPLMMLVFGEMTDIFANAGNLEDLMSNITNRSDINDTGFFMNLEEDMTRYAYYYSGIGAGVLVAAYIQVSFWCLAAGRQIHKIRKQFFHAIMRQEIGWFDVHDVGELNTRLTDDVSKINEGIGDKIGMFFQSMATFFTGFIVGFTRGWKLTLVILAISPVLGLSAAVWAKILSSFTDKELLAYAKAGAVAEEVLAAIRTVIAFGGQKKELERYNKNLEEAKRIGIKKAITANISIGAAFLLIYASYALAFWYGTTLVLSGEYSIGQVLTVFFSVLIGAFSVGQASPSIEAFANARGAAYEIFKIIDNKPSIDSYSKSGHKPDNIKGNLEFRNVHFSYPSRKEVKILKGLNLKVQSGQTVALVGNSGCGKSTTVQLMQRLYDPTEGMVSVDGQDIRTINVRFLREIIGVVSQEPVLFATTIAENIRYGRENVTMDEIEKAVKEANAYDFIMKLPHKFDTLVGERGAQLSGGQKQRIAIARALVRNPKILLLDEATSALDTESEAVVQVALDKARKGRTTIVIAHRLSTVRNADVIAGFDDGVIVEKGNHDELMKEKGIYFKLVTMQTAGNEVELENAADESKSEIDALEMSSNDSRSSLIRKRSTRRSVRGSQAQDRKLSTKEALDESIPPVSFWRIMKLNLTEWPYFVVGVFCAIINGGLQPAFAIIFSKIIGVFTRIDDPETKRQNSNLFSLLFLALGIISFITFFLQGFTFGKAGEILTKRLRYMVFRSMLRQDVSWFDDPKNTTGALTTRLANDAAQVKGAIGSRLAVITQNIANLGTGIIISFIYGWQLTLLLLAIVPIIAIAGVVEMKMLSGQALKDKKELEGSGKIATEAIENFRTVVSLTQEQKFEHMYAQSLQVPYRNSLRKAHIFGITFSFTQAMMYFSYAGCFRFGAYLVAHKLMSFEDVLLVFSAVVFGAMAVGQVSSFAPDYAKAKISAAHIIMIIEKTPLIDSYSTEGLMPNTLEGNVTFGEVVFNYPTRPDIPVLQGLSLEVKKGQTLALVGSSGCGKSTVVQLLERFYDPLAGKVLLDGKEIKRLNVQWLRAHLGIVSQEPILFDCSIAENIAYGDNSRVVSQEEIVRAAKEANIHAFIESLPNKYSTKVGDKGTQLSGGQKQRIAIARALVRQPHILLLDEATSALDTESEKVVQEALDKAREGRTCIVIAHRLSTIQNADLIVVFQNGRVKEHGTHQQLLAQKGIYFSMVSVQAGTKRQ
Chain of mouse Mdr1a (P21447 whole entry, the tested form may be a part): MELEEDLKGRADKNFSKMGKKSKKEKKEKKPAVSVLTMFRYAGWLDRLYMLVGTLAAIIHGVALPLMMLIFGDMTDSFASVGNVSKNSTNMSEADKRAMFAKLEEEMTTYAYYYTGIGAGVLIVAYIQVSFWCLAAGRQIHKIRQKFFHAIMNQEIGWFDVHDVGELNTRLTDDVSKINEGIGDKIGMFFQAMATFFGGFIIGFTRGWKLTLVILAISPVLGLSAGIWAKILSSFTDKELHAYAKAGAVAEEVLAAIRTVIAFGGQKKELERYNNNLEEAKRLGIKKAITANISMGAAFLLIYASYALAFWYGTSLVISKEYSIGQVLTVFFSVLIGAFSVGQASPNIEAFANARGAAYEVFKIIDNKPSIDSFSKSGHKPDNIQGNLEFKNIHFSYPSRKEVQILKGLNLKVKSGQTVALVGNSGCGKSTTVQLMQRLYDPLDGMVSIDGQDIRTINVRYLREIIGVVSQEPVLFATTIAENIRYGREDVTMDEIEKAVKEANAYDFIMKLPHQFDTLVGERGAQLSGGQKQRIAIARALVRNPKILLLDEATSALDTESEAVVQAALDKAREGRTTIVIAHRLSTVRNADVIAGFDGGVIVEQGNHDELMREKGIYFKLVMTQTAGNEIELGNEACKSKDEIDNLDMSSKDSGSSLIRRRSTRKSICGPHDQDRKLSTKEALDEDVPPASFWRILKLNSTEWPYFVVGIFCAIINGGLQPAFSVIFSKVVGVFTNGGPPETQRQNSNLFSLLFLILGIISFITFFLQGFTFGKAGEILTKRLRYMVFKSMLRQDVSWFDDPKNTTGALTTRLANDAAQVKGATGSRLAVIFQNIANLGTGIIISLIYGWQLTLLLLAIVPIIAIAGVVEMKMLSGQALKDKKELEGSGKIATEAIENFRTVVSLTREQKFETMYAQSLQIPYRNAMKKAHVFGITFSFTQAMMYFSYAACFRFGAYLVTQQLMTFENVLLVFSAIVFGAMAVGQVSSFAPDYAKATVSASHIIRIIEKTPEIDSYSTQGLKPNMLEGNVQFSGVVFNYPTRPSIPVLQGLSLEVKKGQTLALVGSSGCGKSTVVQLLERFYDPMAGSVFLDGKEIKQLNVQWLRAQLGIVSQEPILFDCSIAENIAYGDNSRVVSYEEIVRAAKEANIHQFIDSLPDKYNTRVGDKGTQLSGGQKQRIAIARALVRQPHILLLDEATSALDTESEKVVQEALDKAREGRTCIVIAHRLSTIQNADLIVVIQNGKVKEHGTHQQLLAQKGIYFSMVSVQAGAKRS
Chain of human MDR1 (P-gp) (P08183 whole entry): as the sequence (P08183 whole entry) above

Row | Molecule | LogK^IAM [1] | Vmax (mouse Bcrp; [9]) [µM/min] | Vmax (mouse Mdr1b) [µM/min] | Vmax (mouse Mdr1a) [µM/min] | Group (impact of Mdr1a/1b knockout on IPML absorption) [2] | Mdr1a/1b (-/-) AUC(0-30) [2, 10] [%.min] | Mdr1a/1b (-/-) % Deposited Dose absorbed [2, 11] [%] | Mdr1a/1b (+/+) ‘F’ estimate by model fit [95% CI) ([2]; male, mouse) | Mdr1a/1b (-/-) ‘F’ estimate by model fit [95% CI) ([2]; male, mouse) | Mdr1a/1b (+/+) % Deposited Dose absorbed [2, 12] [%] | Mdr1a/1b (−/−) Permeability coefficient [3] | MLV Partitioning [4] | Vmax (human MDR1) [µM/min] | Mdr1a/1b (+/+) ‘F’ estimate by model fit [95% CI) ([2]; male, mouse, 50 μM) | Mdr1a/1b (-/-) ‘F’ estimate by model fit [95% CI) ([2]; male, mouse, 50 μM) | Mdr1a/1b (+/+) Permeability coefficient [5] | Km (mouse Mdr1b) [µM] | Km (mouse Mdr1a) [µM] | effect of co-administered GF120918 upon pulmonary absorption (P-gp [6]) | Mdr1a/1b (−/−) Permeability coefficient [5] | also measured
1 | CC[C@@]1([C@@H]2O[C@@H]([C@H]3O[C@@](O)(CO)[C@H](C)C[C@@H]3C)C[C@@H]2C)CC[C@H]([C@]2(C)CC[C@]3(C[C@H](O)[C@@H](C)[C@@H]([C@@H](C)[C@@H](OC)[C@H](C)C(=O)O)O3)O2)O1 [Monensin, monensin] | 1.32 | 0 | 42.3 | 27.6 | GROUP A | 722 | 38.9 | 35.8 [28.0 to 43.6] | 33.7 [27.7 to 39.6] | 36.5 | 19.06 ± 2.41 cm/s (x10^−6) | 0.68 | – | – | – | – | – | – | – | – | –
2 | CC(C)(C)NCC(O)c1ccc(O)c(CO)c1 (centres unmarked) [Salbutamol, salbutamol] | 1.47 | 0 | 49.1 | 52.3 | GROUP B | – | – | – | – | – | 14.90 ± 2.16 cm/s (x10^−6) | 0.88 | 45.6 | 24.9 [21.8 to 28.1] | 30.2 [28.2 to 32.2] | 10.6 ± 2.30 cm/s (x10^−6) | – | – | – | – | –
3 | COC(=O)c1ccccc1-c1c2ccc(=N)cc-2oc2cc(N)ccc12.Cl [Rh-123, rhodamine-123] | 1.30 | 18.5 | 29.7 | 35.2 | – | – | 33.2 | – | – | 20.7 | – | 0.82 | 36.3 | – | – | 9.06 ± 1.81 cm/s (x10^−6) | 2.2 | 6 | significantly increased | 22.55 ± 2.24 cm/s (x10^−6) | Km (mouse Bcrp; [9]): 110 µM; interaction with Bcrp (ATP turnover) (mouse Bcrp; mouse Bcrp membrane model): showed evidence of interactions with Bcrp; Km (human MDR1): 2.2 µM; effect of P-gp inhibition (GF120918) upon pulmonary absorption (P-gp [7]): increased; Mdr1a/1b (+/+) AUC(0-30) [2]: 376 %.min; Mdr1a/1b (+/+) ‘F’ estimate by model fit [95% CI) [2]: 23.5 [19.9 to 27.1]; Mdr1a/1b (-/-) AUC(0-30) [2]: 712 %.min; Mdr1a/1b (-/-) ‘F’ estimate by model fit [95% CI) [2]: 30.6 [27.6 to 33.5]; Group (impact of Mdr1a/1b knockout on IPML absorption) [2, 13]: GROUP B; Ratio AUCs (-/-) : (+/+) ([2]; mouse): 1.89; t^1/2 for the initial decline of lung clearance, KO (P-gp (Mdr1a/1b); mouse, in vivo): 107 min; t^1/2 for the initial decline of lung clearance, WT (P-gp (Mdr1a/1b); mouse, in vivo): 136 min; t^1/2 terminal decline phase of lung clearance (P-gp (Mdr1a/1b); mouse, in vivo): 500 min; Ratio Permeability (−/−): (+/+) [5]: 2.49
4 | COc1cc2c(c(OC)c1OC)-c1ccc(OC)c(=O)cc1[C@@H](NC(C)=O)CC2 [Colchicine, colchicine] | 1.30 | 0 | 28.4 | 22.7 | – | 571 | 25.4 | 16.6 [14.7 to 18.4] | 23.3 [20.9 to 25.7] | 17.7 | – | 0.86 | 16.6 | – | – | 6.93 ± 3.15 cm/s (x10^−6) | 7.7 | 9.1 | – | 14.95 ± 3.18 cm/s (x10^−6) | Km at 30 min (human MDR1 (P-gp)): 15.4 µM; Ratio AUCs (-/-) : (+/+) ([2]; IPML KO:WT): 1.43; Group (impact of Mdr1a/1b knockout on IPML absorption) [2, 13]: GROUP B; Mdr1a/1b (+/+) AUC(0-30) ([2]; wild-type IPML, % deposited dose absorbed vs time in perfusate): 398 %.min; Ratio Permeability (−/−): (+/+) [5]: 2.16
5 | C[C@H]1O[C@@H](O[C@H]2[C@@H](O)C[C@H](O[C@H]3[C@@H](O)C[C@H](O[C@H]4CC[C@@]5(C)[C@H](CC[C@@H]6[C@@H]5C[C@@H](O)[C@]5(C)[C@@H](C7=CC(=O)OC7)CC[C@]65O)C4)O[C@@H]3C)O[C@@H]2C)C[C@H](O)[C@@H]1O [Digoxin, digoxin] | 0.92 | 0 | 44.1 | 26.7 | – | – | – | – | – | – | – | 0.30 | 19.7 | 44.0 [37.2 to 50.8] | 49.8 [38.4 to 61.3] | 6.04 ± 1.46 cm/s (x10^−6) | – | – | no effect | 20.94 ± 2.94 cm/s (x10^−6) | effect of P-gp inhibition (GF120918) upon pulmonary absorption (P-gp [7]): remained unaffected; Mdr1a/1b (+/+) % Deposited Dose absorbed ([2]; male, mouse, 30 min, 50 μM): 40.1%; Mdr1a/1b (-/-) % Deposited Dose absorbed ([2]; male, mouse, 30 min, 50 μM): 41.8%; lung levels 1 hr post-instillation, wild-type mice (P-gp (Mdr1a/1b); intra-nasal 976 ng, Mdr1a/1b +/+): 1.57 % of the nominal instilled dos; lung levels 1 hr post-instillation, knockout mice (P-gp (Mdr1a/1b); intra-nasal 976 ng, Mdr1a/1b -/-): 0.94 % of the nominal instilled dos; lung levels after 1 h post-instillation (P-gp (Mdr1a/1b); intra-nasal, WT and KO mice): undetectable
6 | cyanocobalamin | – | – | – | – | – | – | – | – | – | – | – | – | – | – | – | – | – | – | – | – | Papp (Caco-2 cell model): < 10 nm/s; permeability across the lung [8]: high permeability
